Data reported in US20210317077A1, “Crystalline Forms of N1-(1-Cyanocycloproply)-N2-((1S)-1-{4'-[(1R-2,2-Difluoro-1-Hydroxyethyl]Biphenyl-4-YL}-2,2,2-Trifluoroethyl)-4-Fluoro-L-Leucinamide” (Intervet Inc., priority 2018, published 2021).

Columns and labels:
[1] = competitive slurry in ethanol/water at 25, 30, 35 and 40° C.; enantiotropically related forms
Experimental: Competitive slurry experiments of Forms A and B in ethanol/water at 25° C., 30° C., 35° C. and 40° C. were used to establish the transition temperature of the enantiotropic forms.

[2] = Experimental: The Form B crystals were added to the SLS and PVP to form a slurry. […] FIG. 9 depicts complimentary in situ process analytical data from Raman spectroscopy (on solute concentration and solid phase composition) and Focused Beam Reflectance Measurement (FBRM characterizing number and dimension of the dispersed particles).
[3] = Form A: temperature range where Form B is stable; Form B: process solvent above 50° C., few hours, no Form A seeds

SMILES | temperature at which the form is the more stable form [1] | relative solubility of the forms (Raman solute signal) ([2]; 80° C., slurry in aqueous SLS and PVP) | form conversion during API process and DP processing timeframes [3] | time for conversion of most Form B crystals to Form A crystals ([2]; 80° C., slurry in aqueous SLS and PVP, after introduction of Form A crystal seeds) | Form A detected before seeding ([2]; Form B slurry in aqueous SLS and PVP raised to 80° C., before Form A seeds)
CC(C)(F)C[C@H](N[C@@H](c1ccc(-c2ccc([C@@H](O)C(F)F)cc2)cc1)C(F)(F)F)C(=O)NC1(C#N)CC1 [Form A] | ≥ 40 °C | lower solubility | does not convert to Form B | – | –
CC(C)(F)C[C@H](N[C@@H](c1ccc(-c2ccc([C@@H](O)C(F)F)cc2)cc1)C(F)(F)F)C(=O)NC1(C#N)CC1 [Form B] | ≤ 30 °C | – | converts to Form A | ≤ 2 h | no Form A detected
